Type in all cases: cell-based
The subject of assay [1] is human CD47. Description: CD47 expression in control EFS-CD47 transduced and wild-type iPSCs with asunaprevir. Particulars: for expression of CD47: 0-10 μM asunaprevir for 48 hours. The protocol: CD47 expression analysis: After incubation, cells are washed and stained with an anti-CD47 antibody conjugated to Alexa-647 (Biolegend) to detect surface expression of CD47. More specifically, 1×10^6 cells are harvested and resuspended in 100 μl cell staining-buffer (PBS, 0.1% BSA, 0.1% sodium azide) and incubated with 5 μl Alexa-Fluor 647 labelled anti-CD47 antibody for 30 min on ice. Cells are washed in cell staining buffer and subsequently analyzed by flow cytometry.
To assess the ability of the SMASH system to promote CD47 degradation, expression constructs were made containing the following expression cassettes: a) an EF1 a core promoter (EFS) operably linked to a human CD47 gene fused to a nucleic acid encoding a SMASH tag (EFS-CD47-SMASH, see FIG. 4, top); and b) a control containing the EFS promoter operably linked to the human CD47 gene alone (EFS-CD47). iPSCs were transduced with either the EFS-SMASH-CD47 expression cassette or control EFS-CD47 expression cassette by lentiviral transduction. The EFS-SMASH-CD47 transduced cells, EFS-CD47 transduced cells, and wild-type control cells were incubated in the presence of 0-10 μM of asunaprevir for 48 hours and CD47 expression was assessed using flow cytometry, as explained above.

Assay [2] deals with human CD47 fused to SMASH tag. Description: SMASH degron CD47 degradation in EFS-SMASH-CD47 transduced iPSCs, flow cytometry. The following applies: 0-10 μM asunaprevir for 48 hours, increasing doses. An excerpt: Small-molecule assisted shutoff, or SMASH, is a system using the hepatitis C virus (HCV) nonstructural protein 3 (NS3) protease and elements in the NS4A protein to effectively shut off expression of a CD47 protein fused to a SMASH-tag with clinically tested HCV protease inhibitors (FIG. 2). In the absence of protease inhibitor (asunaprevir), a cryptic degron sequence is excised, leading to an unmodified gene product. By addition of asunaprevir, the NS3 protease is inhibited, leading to the degradation of newly synthesized CD47 proteins fused to the degron sequence.
CD47 expression analysis: After incubation, cells are washed and stained with an anti-CD47 antibody conjugated to Alexa-647 (Biolegend) to detect surface expression of CD47. More specifically, 1×10^6 cells are harvested and resuspended in 100 μl cell staining-buffer (PBS, 0.1% BSA, 0.1% sodium azide) and incubated with 5 μl Alexa-Fluor 647 labelled anti-CD47 antibody for 30 min on ice. Cells are washed in cell staining buffer and subsequently analyzed by flow cytometry. […]
In general terms: A flow cytometer gives signals particle by particle.

Assay [3] relates to EFS-CD-CD47 transduced cells. Description: Cytosine deaminase safety switch: killing of transduced iPSCs by 5-fluorocytosine. Particulars: 0.01-1000 μM 5-FC; increasing concentrations; FIG. 16 (middle). An excerpt: To assess the ability of cytosine deaminase to induce cell death in an […] manner, an EFS-cytosine deaminase (CD)-CD47 bicistronic cassette was transduced into wild type iPSCs by lentiviral viral transduction (see FIG. 16, top). In this cassette, a nucleic acid encoding CD is located upstream of a nucleic acid encoding CD47. A 2A sequence located between the CD and CD47 nucleic acids to ensure the two proteins are separate following translation. An EFS promoter controls expression of CD and CD47.
EFS-CD-CD47 transduced cells and control EFS-CD transduced cells were contacted with 0.01-1000 μM concentrations of 5-fluorocytosine (5-FC) (“5FC”). Cytosine deaminase deaminates 5-FC to toxic 5-fluorouracil (5-FU), thereby killing the cells.

For assay [4], the system named is human CD47 fused to LID degron domain. Description: LID degron CD47 degradation in EFS-CD47-LID transduced iPSCs, flow cytometry. Particulars: 0-1,000 nM Shield-1 for 24 hours, increasing doses. An excerpt:
In the LID system, the protein of interest (POI e.g., CD47) is fused to a LID degron domain (also referred to as “LID domain” or “LID degron”). The LID degron domain includes the FK506- and rapamycin-binding protein (FKBP) and a peptide degron (e.g., TRGVEEVAEGVVLLRRRGN) fused to the C-terminus of the FKBP (FIG. 5). […] The peptide degron is capable of binding to the FKBP active site and is not detected by cellular degradation proteins when sequestered in the active site, thus rendering it a cryptic degron. In the absence of Shield-1, a small molecule, the POI-LID fusion protein is stable. When present, Shield-1 binds tightly to FKBP, thereby displacing the peptide degron and inducing rapid degradation of the LID and any fused partner protein (e.g., CD47). […]
(§1) The EFS-CD47-LID transduced cells, EFS-CD47 transduced cells, and wild-type control cells were incubated in the presence of 0-1,000 nM of Shield-1 for 24 hours and CD47 expression was assessed using flow cytometry.

The subject of assay [5] is human CD47. Description: CD47 expression in control EFS-CD47 transduced and wild-type iPSCs with Shield-1.
From the text: To assess the ability of the LID system to promote CD47 degradation, expression constructs were made containing the following expression cassettes: a) an EF1a core promoter (EFS) operably linked to a human CD47 gene fused to a nucleic acid encoding the LID degron domain (EFS-CD47-LID, see FIG. 6, top); and b) a control containing the EFS promoter operable linked to the human CD47 gene alone (EFS-CD47). iPSCs were transduced with either the EFS-CD47-LID expression cassette or control EFS-CD47 expression cassette by lentiviral transduction.
as §1

The structures appear in SMILES notation. Where only a bound is given, the exact number is not on record here.

As for `C=C[C@@H]1C[C@]1(NC(=O)[C@@H]1C[C@@H](Oc2ncc(OC)c3ccc(Cl)cc23)CN1C(=O)[C@@H](NC(=O)OC(C)(C)C)C(C)(C)C)C(=O)NS(=O)(=O)C1CC1` [asunaprevir], the results for the “expression of CD47” value in assay [1] (EFS-CD47 ("CD47 only") cells without SMASH) and in assay [1] (wildtype ("WT") cells) were “generally unaltered” and “remained at the baseline”, respectively. Also, in assay [1] (EFS-CD47 cells, no significant CD47 knockdown, 0-10 μM for 48 hours), the “off-target effects on CD47 expression” value is recorded as “no off-target effects”. The “reduction in CD47 expression” value in assay [2] is no less than 50%.
`Nc1nc(=O)[nH]cc1F` [5-FC, 5-fluorocytosine]: the “killing of CD47 expressing EFS-CD-CD47 transduced cells” value in assay [3] is “observed”.
On to `CC[C@H](C(=O)N1CCCC[C@H]1C(=O)O[C@H](CCc1ccc(OC)c(OC)c1)c1cccc(OCCN2CCOCC2)c1)c1cc(OC)c(OC)c(OC)c1` [Shield-1], for which the “reduction in CD47 expression” value in assay [4] was no less than 50%. Moreover, the “expression of CD47” value in assay [5] (EFS-CD47 ("CD47 only") cells without LID, 0-1,000 nM for 24 hours) is recorded as “generally unaltered”; in assay [5] (wildtype ("WT") cells, 0-1,000 nM Shield-1 for 24 hours), “remained at the baseline”. Moreover, the “off-target effects on CD47 expression” value in assay [5] (EFS-CD47 cells, no significant CD47 knockdown, 0-1,000 nM for 24 hours) is “no off-target effects”.

These data come from patent publication US20230062612A1, “SAFETY SWITCHES FOR REGULATION OF GENE EXPRESSION” (Sana Biotechnology, Inc., priority 2020, published 2023).
